From article PMC4076210, “Discovery of Novel AKT Inhibitors with Enhanced Anti-Tumor Effects in Combination with the MEK Inhibitor” (PLoS ONE, 2014)

Legend:
[1] = molecular target: T1, CDK3/cyclinE(h) (Homo sapiens, UniProt Q00526); experiment: Kinase panel; format: biochemical; conditions: read-out: % Inhibition
T1 construct: purchased Millipore KinaseProfiler

[2] = system: hematological tumor cell lines; experiment: 3-day proliferation assay (CellTiter-Glo); format: cell-based, human; conditions: for IC50: Homo sapiens
Method in brief: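 Growth inhibition was read by CellTiter-Glo after 3 days' exposure to 0–30 µM compound and expressed against DMSO controls. EC50 was derived by 4- or 6-parameter fitting. Cells were mostly grown in RPMI plus 10% FBS, some in vendor-specified media.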

T1 sequence (Q00526 whole entry): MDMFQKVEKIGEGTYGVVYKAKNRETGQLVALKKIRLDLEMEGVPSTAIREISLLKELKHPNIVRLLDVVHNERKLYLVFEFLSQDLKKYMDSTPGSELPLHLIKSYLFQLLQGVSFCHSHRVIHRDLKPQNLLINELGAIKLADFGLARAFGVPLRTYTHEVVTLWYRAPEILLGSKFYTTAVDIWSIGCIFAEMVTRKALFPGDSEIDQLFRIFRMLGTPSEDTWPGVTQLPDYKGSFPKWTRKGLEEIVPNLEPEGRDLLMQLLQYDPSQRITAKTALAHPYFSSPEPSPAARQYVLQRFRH
T1 sequence (P24864 whole entry partner): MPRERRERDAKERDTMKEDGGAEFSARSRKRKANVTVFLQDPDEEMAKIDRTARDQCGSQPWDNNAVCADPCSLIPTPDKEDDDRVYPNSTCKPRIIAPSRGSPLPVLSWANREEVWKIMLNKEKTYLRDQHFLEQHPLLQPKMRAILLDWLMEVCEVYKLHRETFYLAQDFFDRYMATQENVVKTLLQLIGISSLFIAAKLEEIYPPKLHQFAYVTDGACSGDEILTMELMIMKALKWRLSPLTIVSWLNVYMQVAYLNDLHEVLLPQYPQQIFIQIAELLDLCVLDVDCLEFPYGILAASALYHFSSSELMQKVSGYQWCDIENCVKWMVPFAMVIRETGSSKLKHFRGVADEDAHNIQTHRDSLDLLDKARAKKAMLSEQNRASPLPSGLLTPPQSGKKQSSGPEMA

For `Cn1ncc(Cl)c1-c1cc(C(=O)N[C@H](CN)Cc2ccc(F)c(F)c2)oc1Cl` [GSK2141795], the inhibition at 0.5 µM ([1]; 0.5 µM) was -13%, the inhibition at 10 µM ([1]; 10 µM) was 30% and the “hematological cell lines sensitive (EC50<1 µM)” value ([2]; 112 cell lines, 3 days, CTG) was 81%. For the same compound, the IC50 ([2]; 1A2, 1A2 cell line, Burkitt's Lymphoma, B Cell) was 93 nM, the IC50 ([2]; 697 cell line, ALL, pre-B Cell) was 300 nM and the IC50 ([2]; ARH-77, ARH77 cell line, Multiple Myeloma, B Cell) was 155 nM. It also gave an IC50 ([2]; B-cell, BDCM cell line, AML, B Cell) of 14 nM, an IC50 ([2]; B-cell, CESS cell line, AML, B Cell) of 9 nM and an IC50 ([2]; B-cell, CRO-AP3 cell line, Primary Effusion Lymphoma (PEL), B Cell) of 113 nM. It also gave an IC50 ([2]; B-cell, EHEB cell line, CLL, B Cell) of 51 nM, an IC50 ([2]; B-cell, HKB-11 cell line, Burkitt's Lymphoma, B Cell) of 52 nM and an IC50 ([2]; B-cell, HS-Sultan cell line, Burkitt's Lymphoma, B Cell) of 226 nM. The IC50 ([2]; B-cell, KARPAS-231 cell line, ALL, B Cell) was 36 nM, the IC50 ([2]; B-cell, MC/CAR cell line, Multiple Myeloma, B Cell) was 40 nM and the IC50 ([2]; B-cell, MN60 cell line, ALL, B Cell) was 653 nM. For the same compound, the IC50 ([2]; B-cell, Namalwa cell line, Burkitt's Lymphoma, B Cell) was 300 nM, the IC50 ([2]; B-cell, SD-1 cell line, ALL, B Cell) was 15 nM and the IC50 ([2]; B-cell, Tanoue cell line, ALL, B Cell) was 1460 nM. For the same compound, the IC50 ([2]; BC1, BC1 cell line, Burkitt's Lymphoma, B Cell) was 465 nM, the IC50 ([2]; BC-3, BC3 cell line, Burkitt's Lymphoma, B Cell) was 3130 nM and the IC50 ([2]; BV-173, BV173 cell line, CML, pre-B Cell) was 860 nM. For the same compound, the IC50 ([2]; CA46, CA46 cell line, Burkitt's Lymphoma, B Cell) was 948 nM, the IC50 ([2]; CCRF-CEM, CCRFCEM cell line, ALL, T Cell) was 146 nM and the IC50 ([2]; CCRF-SB, CCRFSB cell line, ALL, B Cell) was 20 nM. For the same compound, the IC50 ([2]; CEM/C1, CEM/C1 cell line, ALL, T Cell) was 30 nM, the IC50 ([2]; CEM/C2, CEM/C2 cell line, ALL, T Cell) was 22 nM and the IC50 ([2]; CML-T1, CML-T1 cell line, CML, T Cell) was 5230 nM. For the same compound, the IC50 ([2]; CRO-AP5, CRO-AP5 cell line, Primary Effusion Lymphoma (PEL), B Cell) was 34 nM, the IC50 ([2]; DB, DB cell line, Non-Hodgkin's Lymphoma, B Cell) was 5220 nM and the IC50 ([2]; DG-75, DG75 cell line, Burkitt's Lymphoma, B Cell) was 14800 nM. It also gave an IC50 ([2]; DOHH-2, DOHH-2 cell line, Non-Hodgkin's Lymphoma, B Cell) of 10.5 nM, an IC50 ([2]; Daudi, DAUDI cell line, Burkitt's Lymphoma, B Cell) of 269 nM and an IC50 ([2]; EB1, EB1 cell line, Burkitt's Lymphoma, B Cell) of 49 nM. It also gave an IC50 ([2]; EB2, EB2 cell line, Burkitt's Lymphoma, B Cell) of 256 nM, an IC50 ([2]; EB-3, EB3 cell line, Burkitt's Lymphoma, B Cell) of 1760 nM and an IC50 ([2]; EM-2, EM2 cell line, CML, Unspecified) of 1650 nM. For the same compound, the IC50 ([2]; Farage cell line, Non-Hodgkin's Lymphoma, B Cell) was 103 nM, the IC50 ([2]; GA-10, GA-10 cell line, Burkitt's Lymphoma, B Cell) was 17 nM and the IC50 ([2]; GDM-1, GDM-1 cell line, AML, Monoblast) was 3070 nM. It also gave an IC50 ([2]; HD-MY-Z cell line, Hodgkin's Lymphoma, Unspecified) of 8290 nM, an IC50 ([2]; HEL 92.1.7, HEL92.1.7 cell line, AML, Erythroleukemia) of 7760 nM and an IC50 ([2]; HH, HH cell line, Non-Hodgkin's Lymphoma (CTCL), T Cell) of 85 nM. It also gave an IC50 ([2]; HL-60, HL-60 cell line, AML, Myeloblast) of 3720 nM, an IC50 ([2]; HSB2, HSB2 cell line, ALL, T Cell) of 576 nM and an IC50 ([2]; HT, HT cell line, Burkitt's Lymphoma, B Cell) of 93 nM. The IC50 ([2]; HuT78, HuT78 cell line, Non-Hodgkin's Lymphoma (CTCL), T Cell) was 147 nM, the IC50 ([2]; J.gamma1, J.Gamma-1 cell line, ALL, T Cell) was 21 nM and the IC50 ([2]; JIYOYE, JIYOYE cell line, Burkitt's Lymphoma, B Cell) was 536 nM. For the same compound, the IC50 ([2]; JM1, JM1 cell line, Burkitt's Lymphoma, pre-B Cell) was 212 nM, the IC50 ([2]; JVM13, JVM13 cell line, CLL, B Cell) was 84 nM and the IC50 ([2]; JVM-2, JVM2 cell line, CLL, B Cell) was 13 nM. For the same compound, the IC50 ([2]; JVM-3, JVM-3 cell line, CLL, B Cell) was 8480 nM, the IC50 ([2]; Jurkat, Jurkat cell line, ALL, T Cell) was 17 nM and the IC50 ([2]; K562, K562 cell line, CML, Lymphoblast) was 9780 nM. The IC50 ([2]; KG-1, KG-1 cell line, AML, B Cell) was 281 nM, the IC50 ([2]; KU812, Ku812 cell line, CML, Basophilic Leukocyte) was 72 nM and the IC50 ([2]; Kasumi 1, Kasumi-1 cell line, AML, Myeloblast) was 22.3 nM. For the same compound, the IC50 ([2]; Kasumi-2 cell line, AML, Myeloblast) was 457 nM and the IC50 ([2]; L-428, L428 cell line, Hodgkin's Lymphoma, Unspecified) was 1.2 nM.
